Legend:
[1] = test system: Renal Cancer subpanel; test: NCI-60 screen, subpanel Renal Cancer
[2] = test system: SNB-19; test: NCI-60 SRB screen: CNS cancer SNB-19; format: cell-based, human; conditions: SNB-19
[3] = test system: 60 human tumor cell lines; conditions: single dose 10 µM
[4] = test system: PC-3; test: NCI-60 SRB screen: prostate cancer PC-3; format: cell-based, human; conditions: PC-3
[5] = test system: ACHN; test: NCI-60 SRB screen: renal cancer ACHN; format: cell-based, human
[6] = test system: A549/ATCC; test: NCI-60 SRB screen: non-small cell lung cancer A549/ATCC; format: cell-based, human; conditions: A549/ATCC
[7] = test system: K-562; test: NCI-60 SRB screen: leukemia K-562; format: cell-based, human; conditions: K-562
[8] = test system: Melanoma subpanel; test: NCI-60 screen, subpanel Melanoma
[9] = test system: SN12C; test: NCI-60 SRB screen: renal cancer SN12C; format: cell-based, human
[10] = test system: MDA-MB-435; test: NCI-60 SRB screen: melanoma MDA-MB-435; format: cell-based, human; conditions: MDA-MB-435
[11] = test system: OVCAR-5; test: NCI-60 SRB screen: ovarian cancer OVCAR-5; format: cell-based, human; conditions: OVCAR-5
[12] = test system: CCRF-CEM; test: NCI-60 SRB screen: leukemia CCRF-CEM; format: cell-based; conditions: Homo sapiens, 48 h
[13] = test system: M14; test: NCI-60 SRB screen: melanoma M14; format: cell-based, human; conditions: M14
[14] = test system: NSCL cancer subpanel; test: NCI-60 screen, subpanel NSCL cancer
[15] = test system: OVCAR-4; test: NCI-60 SRB screen: ovarian cancer OVCAR-4; format: cell-based; conditions: Homo sapiens; OVCAR-4; five concentrations, 48 h, SRB; read-out: GI50
[16] = test system: RXF 393; test: NCI-60 SRB screen: renal cancer RXF 393; format: cell-based, human; conditions: RXF 393
[17] = test system: KM12; test: NCI-60 SRB screen: colon cancer KM12; format: cell-based, human; conditions: KM12
[18] = test system: SF-539; test: NCI-60 SRB screen: CNS cancer SF-539; format: cell-based, human; conditions: SF-539
[19] = test system: NCI-H322M; test: NCI-60 SRB screen: non-small cell lung cancer NCI-H322M; format: cell-based, human
[20] = test system: HT29; test: NCI-60 SRB screen: colon cancer HT29; format: cell-based; conditions: Homo sapiens, HT29
[21] = test system: DU-145; test: NCI-60 SRB screen: prostate cancer DU-145; format: cell-based, human; conditions: DU-145
[22] = test system: NCI-H460; test: NCI-60 SRB screen: non-small cell lung cancer NCI-H460; format: cell-based; conditions: Homo sapiens, 48 h, NCI-H460
[23] = test system: Leukemia subpanel; test: NCI-60 screen, subpanel Leukemia
[24] = test system: UACC-257; test: NCI-60 SRB screen: melanoma UACC-257; format: cell-based, human; conditions: UACC-257
[25] = test system: UO-31; test: NCI-60 SRB screen: renal cancer UO-31; format: cell-based, human; conditions: UO-31
[26] = test system: EKVX; test: NCI-60 SRB screen: non-small cell lung cancer EKVX; format: cell-based, human
[27] = test system: HOP-92; test: NCI-60 SRB screen: non-small cell lung cancer HOP-92; format: cell-based, human; conditions: HOP-92
[28] = test system: NCI-H23; test: NCI-60 SRB screen: non-small cell lung cancer NCI-H23; format: cell-based, human; conditions: NCI-H23
[29] = test system: SF-295; test: NCI-60 SRB screen: CNS cancer SF-295; format: cell-based, human; conditions: SF-295
[30] = test system: IGROV1; test: NCI-60 SRB screen: ovarian cancer IGROV1; format: cell-based, human; conditions: IGROV1
[31] = test system: MDA-MB-468; test: NCI-60 SRB screen: breast cancer MDA-MB-468; format: cell-based, human
[32] = test system: NCI-H522; test: NCI-60 SRB screen: non-small cell lung cancer NCI-H522; format: cell-based, human; conditions: NCI-H522
[33] = test system: HL-60(TB); test: NCI-60 SRB screen: leukemia HL-60(TB); format: cell-based; conditions: Homo sapiens, 48 h, HL-60(TB)
[34] = test system: MOLT-4; test: NCI-60 SRB screen: leukemia MOLT-4; format: cell-based; conditions: Homo sapiens, 48 h, MOLT-4
[35] = test system: HCC-2998; test: NCI-60 SRB screen: colon cancer HCC-2998; format: cell-based, human; conditions: HCC-2998
[36] = test system: RPMI-8226; test: NCI-60 SRB screen: leukemia RPMI-8226; format: cell-based; conditions: Homo sapiens, 48 h, RPMI-8226
[37] = test system: A498; test: NCI-60 SRB screen: renal cancer A498; format: cell-based, human; conditions: A498
[38] = Homo sapiens, five concentrations, 48 h, SRB, read-out: GI50
[39] = single dose 10 µM, read-out: Percentage Cell Growth
[40] = five concentrations, SRB, read-out: GI50

## CC(=O)OCC12CCC(C(C)C(N)=O)C1C1CCC3C4(C)CCC(OC(C)=O)C(C)(C)C4CCC3(C)C1(C)CC2 [Compound 4, 3β,28-Diacetyloxy-(20R)-29-amino-29-oxolupane]
[1]
  MID b, average sensitivity of all cell line of particular subpanel: 8.12 µM
  Selectivity, ratio MID a: MID b: 0.97
[2]; [38]
  GI50: 11.9 µM
[2]; single dose 10 µM
  Percentage Cell Growth: −39.95%
[3]; cell lines with negative growth
  cancer cell lethality, range of percentage growth: −8.82% to −97.54%
[3]; number of cell lines
  cases of cancer cell lethality: 57
[4]; [38]
  GI50: 2.67 µM
[4]; single dose 10 µM
  Percentage Cell Growth: −47.42%
[5]; [38]
  GI50: 5.78 µM
[5]; single dose 10 µM
  Percentage Cell Growth: −75.68%
[6]; single dose 10 µM
  Percentage Cell Growth: 9.89%
[6]; [38]
  GI50: 3.97 µM
[7]; Homo sapiens, K562, five concentrations, 48 h, SRB, read-out: GI50
  GI50: 4.09 µM
[7]; single dose 10 µM
  Percentage Cell Growth: 3.10%
[8]
  MID b, average sensitivity of all cell line of particular subpanel: 7.80 µM
  Selectivity, ratio MID a: MID b: 1.01
[9]; [38]
  GI50: 5.65 µM
[9]; single dose 10 µM
  Percentage Cell Growth: −91.61%
[10]; [38]
  GI50: 5.23 µM
[10]; single dose 10 µM
  Percentage Cell Growth: −63.78%
[11]; [38]
  GI50: 14.4 µM
[11]; single dose 10 µM
  Percentage Cell Growth: −77.37%
[12]; [39]
  activity at 10 µM: -12.4%
[12]; [40]
  GI50: 5.19 µM
[13]; [38]
  GI50: 7.38 µM
[13]; single dose 10 µM
  Percentage Cell Growth: −44.25%
[14]
  MID b, average sensitivity of all cell line of particular subpanel: 7.50 µM
  Selectivity, ratio MID a: MID b: 1.05
[15]
  GI50: 4.72 µM
[16]; [38]
  GI50: 4.28 µM
[16]; single dose 10 µM
  Percentage Cell Growth: −64.94%
[17]; [38]
  GI50: 3.86 µM
[17]; single dose 10 µM
  Percentage Cell Growth: −62.05%
[18]; [38]
  GI50: 5.52 µM
[18]; single dose 10 µM
  Percentage Cell Growth: −83.91%
[19]; [38]
  GI50: 13 µM
[19]; single dose 10 µM
  Percentage Cell Growth: −78.19%
[20]; HT-29, 48 h, single dose 10 µM, read-out: Percentage Cell Growth
  activity at 10 µM: -77.7%
[20]; HT-29, five concentrations, 48 h, SRB, read-out: GI50
  GI50: 3.73 µM
[21]; single dose 10 µM
  Percentage Cell Growth: −69.87%
[21]; [38]
  GI50: 9.94 µM
[22]; [39]
  activity at 10 µM: -61.8%
[22]; [40]
  GI50: 13.4 µM
[23]
  MID b, average sensitivity of all cell line of particular subpanel: 3.55 µM
  Selectivity, ratio MID a: MID b: 2.22
[24]; [38]
  GI50: 4.83 µM
[24]; single dose 10 µM
  Percentage Cell Growth: −46.24%
[25]; [38]
  GI50: 7.57 µM
[25]; single dose 10 µM
  Percentage Cell Growth: −97.54%
[26]; [38]
  GI50: 9.28 µM
[26]; single dose 10 µM
  Percentage Cell Growth: −25.21%
[27]; single dose 10 µM
  Percentage Cell Growth: −83.15%
[27]; [38]
  GI50: 5.21 µM
[28]; [38]
  GI50: 9.42 µM
[28]; single dose 10 µM
  Percentage Cell Growth: −40.35%
[29]; [38]
  GI50: 8.57 µM
[29]; single dose 10 µM
  Percentage Cell Growth: −50.75%
[30]; Homo sapiens, IGROV-1, five concentrations, 48 h, SRB, read-out: GI50
  GI50: 13.2 µM
[30]; single dose 10 µM
  Percentage Cell Growth: −71.25%
[31]; [38]
  GI50: 3.96 µM
[31]; single dose 10 µM
  Percentage Cell Growth: −40.40%
[32]; [38]
  GI50: 4.94 µM
[32]; single dose 10 µM
  Percentage Cell Growth: −61.13%
[33]; [39]
  activity at 10 µM: -23.1%
[33]; [40]
  GI50: 2.76 µM
[34]; [39]
  activity at 10 µM: -29.1%
[34]; [40]
  GI50: 3.29 µM
[35]; single dose 10 µM
  Percentage Cell Growth: −68.10%
[35]; [38]
  GI50: 10.4 µM
[36]; [39]
  activity at 10 µM: -18.3%
[36]; [40]
  GI50: 2.63 µM
[37]; single dose 10 µM
  Percentage Cell Growth: −81.70%
[37]; [38]
  GI50: 12.8 µM
